# Assay results from PubChem BioAssay (NCI).
#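 Values below derive from 48-hour exposures of cells grown in 96-well plates, with endpoints linearly interpolated between the two concentrations bracketing the appropriate inhibition level. Abbreviation: GI50, concentration required for 50% inhibition of growth. TGI: total growth inhibition.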
# Experiments:
# Test in all cases: NCI-60 cell line screen, 48 h
# 786-0 renal = system: 786-0 renal
# A498 renal = system: A498 renal
# ACHN renal = system: ACHN renal
# EKVX NSCLC = system: EKVX NSCLC
# MCF7 breast = system: MCF7 breast
# NCI/ADR-RES ovarian = system: NCI/ADR-RES ovarian
# RPMI-8226 leukemia = system: RPMI-8226 leukemia
# SR leukemia = system: SR leukemia
# UACC-62 melanoma = system: UACC-62 melanoma
# UO-31 renal = system: UO-31 renal
Structure (SMILES),TGI (786-0 renal) [µM],TGI (A498 renal) [µM],TGI (ACHN renal) [µM],TGI (EKVX NSCLC) [µM],TGI (MCF7 breast) [µM],TGI (NCI/ADR-RES ovarian) [µM],TGI (RPMI-8226 leukemia) [µM],TGI (SR leukemia) [µM],TGI (UACC-62 melanoma) [µM],TGI (UO-31 renal) [µM],GI50 (A498 renal) [µM],GI50 (NCI/ADR-RES ovarian) [µM],GI50 (RPMI-8226 leukemia) [µM],GI50 (ACHN renal) [µM],GI50 (EKVX NSCLC) [µM],GI50 (MCF7 breast) [µM],GI50 (UACC-62 melanoma) [µM],GI50 (UO-31 renal) [µM],GI50 (SR leukemia) [µM]
O=C1OC2(c3ccc(O)cc3Oc3cc(O)ccc32)c2c1c(-c1ccccc1)c(-c1ccccc1)c(-c1ccccc1)c2-c1ccccc1,75.6,33.9,40.9,59.1,31.1,98.2,70.2,46.1,32.9,63.7,–,–,–,–,–,–,–,–,–
O=C1c2ccccc2C(=O)c2c(O)c(O)cc(O)c21,> 100,> 100,> 100,> 100,–,–,70.1,–,64.8,49.2,–,–,–,–,–,–,–,–,–
COc1cc2c3c(n(C4CCNCC4)c(=O)c2cc1OC)-c1cc2c(cc1C3=O)OCO2,–,3.32,–,–,–,4,3.68,–,–,–,0.619,0.823,0.773,–,–,–,–,–,–
CCCCCCCCCCCCCCCCOCCCOP(=O)(O)C1CCCN(O)C1=O (stereo not given),–,12.4,14.2,16.3,20,25.6,29.4,–,7.18,13.7,1.73,4.02,0.936,3.2,3.6,3.39,1.29,2.77,–
NC(=O)c1cc(C2OC(CO)C(O)C2O)nn1-c1ccc([N+](=O)[O-])cc1 (stereo not given),–,> 100,> 100,> 100,–,–,> 100,–,> 100,> 100,–,–,–,–,–,–,–,–,–
COc1ccc(/C=C/[N+](=O)[O-])cc1,> 100,17.3,32.4,41,5.83,> 100,–,5.48,39.7,41.3,–,–,–,–,–,–,–,–,–
COc1cc2c3c(c4cc(OC)c(OC)cc4c2cc1OC)[C@H](O)[C@@H]1CCCN1C3,–,–,0.3,0.938,–,2.97,0.44,2.67,0.395,–,–,–,–,–,–,–,–,–,–
N#CC1=C(N)Nc2nc3ccccc3n2C1c1ccccc1 (stereo not given),> 100,96.1,68.5,57.4,> 100,> 100,31,> 100,> 100,> 100,–,–,–,–,–,–,–,–,–
S=C1NN=C2C(=C3CCCC4C5CCCCC5N2C34)N1 (stereo not given),–,–,> 100,–,> 100,> 100,> 100,> 100,–,> 100,–,–,–,–,–,–,–,–,–
COC1/C=C\OC2(C)Oc3c(C)c(O)c4c(O)c(c(CN(C)C)c(O)c4c3C2=O)NC(=O)/C(C)=C\C=C/C(C)C(O)C(C)C(O)C(C)C(OC(C)=O)C1C (stereo not given),> 100,> 100,> 100,61.4,34.8,> 100,40,43.1,41.2,> 100,–,–,–,–,–,–,–,–,–
COc1ccc2c(c1)/C(=C\c1cccc(/C=C3/C(=O)Nc4ccc(OC)cc43)n1)C(=O)N2,2.55,6.03,5.41,> 40.3,> 25.6,> 58.8,–,0.452,2.28,3.81,–,–,–,–,–,–,0.703,–,0.209
COC(=O)c1nc2c3c(cccc3c1C(=O)OC)Nc1ccccc1-2,> 100,> 100,> 100,> 100,> 100,> 100,> 100,> 100,55.7,> 100,–,–,–,–,–,–,–,–,–
C[C@H](CCC1=NCCN1)[C@H]1CC[C@H]2[C@@H]3CC[C@@H]4C[C@H](O)CC[C@]4(C)[C@H]3CC[C@]12C,–,34.5,24.2,30.1,> 57.4,39.5,13.4,> 20,4.26,31.4,–,–,–,–,–,–,–,–,–
O=C(O)Cc1[nH]cnc1C(=O)O,> 100,> 100,> 100,> 100,> 100,> 100,> 100,–,> 100,> 100,–,–,–,–,–,–,–,–,–
O=C(O)CNCc1c2ccccc2[n+]([O-])c2ccccc12,> 100,> 100,> 100,> 100,–,–,> 100,–,> 100,91.7,–,–,–,–,–,–,–,–,–
CSc1sc(=S)sc1SC,–,> 100,–,> 100,> 100,54.3,> 100,–,> 100,> 100,–,–,–,–,–,–,–,–,–
O=C(O)C(Br)Cc1ccc2c(c1)OCO2 (stereo not given),–,> 100,> 100,> 100,–,–,> 100,> 100,> 100,> 100,–,–,–,–,–,–,–,–,–
C#C[C@@]1(O)[C@@H](CO)O[C@@H](n2cc(F)c3c(N)ncnc32)[C@@H]1O,–,2.27,> 100,11.3,–,11.3,1.98,> 100,1.47,2.48,0.725,0.306,0.221,0.24,0.675,–,0.331,0.47,0.185
CCOn1cc(C2=C(c3c[nH]c4ccccc34)C(=O)NC2=O)c2ccccc21,15.7,–,16.4,29.9,1.03,< 0.01,5.28,29.4,20.3,> 47.4,–,< 0.01,–,–,14.6,< 0.0149,< 0.01,16.9,0.0343
C/C(=C\COP(=O)(O)OP(=O)(O)O)CC/C=C(\C)CNc1ccc([N+](=O)[O-])cc1,> 100,–,> 100,> 100,> 100,> 100,> 100,> 100,> 100,> 100,–,–,–,–,–,–,–,–,–
CSc1ccc(-c2cc(-c3nc4ccccc4[nH]3)nc3[nH]c(-c4nc5ccccc5[nH]4)cc(=O)c23)cc1,> 100,–,> 100,> 100,> 100,> 100,> 100,> 100,> 100,> 100,–,–,–,–,–,–,–,–,–
Nc1nncs1,> 5000,> 5000,> 5000,> 5000,> 5000,> 5000,> 5000,> 5000,> 3890,> 5000,–,–,–,–,–,–,–,–,–
